Laboratory results from PMC6204753, “Non-native autoinducer analogs capable of modulating the SdiA quorum sensing receptor in Salmonella enterica serovar Typhimurium” (Beilstein Journal of Organic Chemistry, 2018).
“Also recorded” adds a separate entry of the source. Like-named read-outs stand apart in the source and are kept apart here. Marks after values point to notes of the source that are not given here.

Columns and labels:
Format in all cases: cell-based
SdiA [1] = molecular target: T1, SdiA (Salmonella enterica subsp. enterica serovar Typhimurium, UniProt O66040); experiment: S. Typhimurium-pJNS25 SdiA reporter, competitive antagonism against 10 nM L-OOHL; conditions: for inhibition at 1 µM / Antagonism 1 μM Inhibition (%): 1 μM compound; for inhibition at 1 µM / inhibition at 100 µM / Antagonism 1 μM Inhibition (%) / Antagonism 100 μM Inhibition (%): average ± STD, change in activity from 10 nM 2 (OOHL); for inhibition at 1 µM: read-out: Antagonism 1 μM Inhibition (%); for inhibition at 100 µM / Antagonism 100 μM Inhibition (%): 100 μM compound; for inhibition at 100 µM: read-out: Antagonism 100 μM Inhibition (%); for IC50: against 10 nM L-OOHL (EC90); for Emax: 100% minus lowest % activity in presence of 10 nM L-OOHL (2)
T1 sequence (O66040 entry or part of it): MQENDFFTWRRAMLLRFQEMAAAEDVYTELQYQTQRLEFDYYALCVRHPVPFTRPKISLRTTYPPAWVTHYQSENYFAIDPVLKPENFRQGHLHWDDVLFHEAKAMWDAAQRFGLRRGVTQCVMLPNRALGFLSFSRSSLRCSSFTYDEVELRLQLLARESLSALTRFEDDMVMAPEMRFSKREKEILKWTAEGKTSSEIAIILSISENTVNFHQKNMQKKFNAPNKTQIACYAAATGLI
Text: (§1) Biological assays for SdiA activity. Cell-based reporter strains that rely on detecting the transcriptional activity of LuxR-type receptors are commonly used to assess the activity of exogenous ligands. We used the S. Typhimurium-pJNS25 reporter strain constructed by Smith and Ahmer and also used by Janssens et al. to examine SdiA activity. This strain naturally produces SdiA and contains a reporter plasmid with the promoter region for srgE fused to the luxABCDE operon of V. fischeri (see Experimental section for details of all strains and plasmids). SdiA activity is thus reported by the production of luciferase and resulting bioluminescence. We also prepared an SdiA reporter in E. coli (JLD271-pJN105SE-pSC11SE) to examine S. Typhimurium SdiA activity in an alternate background and with a different reporter gene output. […] This reporter construct uses an arabinose inducible promoter to produce S. Typhimurium SdiA and the promoter region for srgE fused to lacZ to report SdiA activity. SdiA activity is then measured using standard β-galactosidase assays. In both reporter strains, signal was normalized to the difference between the positive control (10 μM OOHL) and the negative control (1% DMSO; no compound).
(§2) Salmonella SdiA reporter assay. S. Typhimurium-pJNS25 was grown 16–18 h overnight in LB, diluted 1:100 in fresh LB medium, and then incubated for 6 h at 37 °C with shaking at 200 rpm in the presence of compounds (1% DMSO). […] All compounds were screened at 100 μM and 1 μM in triplicate in agonism and antagonism assays. […] Dose–response analyses were performed by preparing dilutions of compounds in DMSO and testing each concentration in the agonism or antagonism assays. Competition dose–response assays (data in Figure 5) were performed in the same manner as the antagonism assays, except instead of OOHL being added to the subculture, the antagonist being tested was added. Non-linear regression curve fits were generated using GraphPad Prism software (version 6) using variable slope (four parameter) dose–response analysis.

SdiA [2] = molecular target: T1, SdiA; experiment: S. Typhimurium-pJNS25 SdiA reporter, agonism (luminescence); conditions: for Emax: read-out: activation (%); for EC50: agonism dose–response; for fold increase: potency of thiolactone over corresponding lactone (EC50 ratio); for activity in the SdiA reporter assay (in words): S. Typhimurium reporter
Text: as §1, §2

S. Typhimurium SdiA = S. Typhimurium SdiA (Salmonella enterica subsp. enterica serovar Typhimurium, UniProt O66040); experiment: E. coli JLD271-pJN105SE-pSC11SE SdiA reporter, antagonism (β-galactosidase); conditions: E. coli reporter; against OOHL at its EC50 (1.5 nM); NA = not active; 0.0015 µM
Chain of S. Typhimurium SdiA (O66040 entry or part of it): as above
Text: Biological assays for SdiA activity. Cell-based reporter strains that rely on detecting the transcriptional activity of LuxR-type receptors are commonly used to assess the activity of exogenous ligands. We used the S. Typhimurium-pJNS25 reporter strain constructed by Smith and Ahmer and also used by Janssens et al. to examine SdiA activity. This strain naturally produces SdiA and contains a reporter plasmid with the promoter region for srgE fused to the luxABCDE operon of V. fischeri (see Experimental section for details of all strains and plasmids). SdiA activity is thus reported by the production of luciferase and resulting bioluminescence. We also prepared an SdiA reporter in E. coli (JLD271-pJN105SE-pSC11SE) to examine S. Typhimurium SdiA activity in an alternate background and with a different reporter gene output. E. coli JLD271 is the sdiA mutant of K-12 E. coli. This reporter construct uses an arabinose inducible promoter to produce S. Typhimurium SdiA and the promoter region for srgE fused to lacZ to report SdiA activity. SdiA activity is then measured using standard β-galactosidase assays. In both reporter strains, signal was normalized to the difference between the positive control (10 μM OOHL) and the negative control (1% DMSO; no compound).
E. coli SdiA reporter assay. The β-galactosidase assay using the E. coli SdiA reporter was performed as reported previously, with minor modifications. The reporter strain was grown 16–18 h overnight in LB, diluted 1:10 in fresh LB medium, and incubated at 37 °C with shaking at 200 rpm until it reached an OD600 of 0.25. Expression of SdiA was induced by the addition of 4 mg/mL arabinose, and the culture was incubated in the presence of compounds (1% DMSO) for 4 h at 37 °C with shaking at 200 rpm. […] A 50 μL aliquot of culture from each well was lysed in 200 μL of Z-buffer and 8 μL of chloroform, and a 100 μL aliquot of this lysate was incubated with 25 μL of 4 mg/mL ONPG for 20 min at 30 °C before reading absorption at 420 nm and 550 nm using a Biotek Synergy 2 plate reader. Non-linear regression curve fits were generated using GraphPad Prism software (version 6) using variable slope (four parameter) dose–response analysis.

[3] = maximal inhibition, read-out: inhibition (%)
[4] = maximal activation of the antagonists (partial agonism), Table 3
[5] = maximal activity (efficacy) from agonism dose–response, 10 μM OOHL = 100%, DMSO = 0%

| Compound | inhibition at 1 µM (SdiA [1]) | inhibition at 100 µM (SdiA [1]) | Emax (SdiA [1]; [3]) | Emax (SdiA [2]; [4]) | EC50 (SdiA [2]; read-out: EC50) | Emax (SdiA [2]; [5]) | other results |
| --- | --- | --- | --- | --- | --- | --- | --- |
| CCCCCCCCCCOc1ccc(C(=O)N[C@H]2CCOC2=O)cc1 [R7] | 8 ± 6% | 43 ± 15% | 51% | 6% | – | – | IC50 (SdiA [1]): 3.1 µM |
| Cc1cccc(CC(=O)N[C@H]2CCOC2=O)c1 [E1] | -6 ± 7% | -14 ± 13% | – | – | 0.0664 µM | 99% | – |
| CSc1cccc(CC(=O)N[C@H]2CCOC2=O)c1 [E7] | 20 ± 14% | 12 ± 13% | – | – | 0.026 µM | 91% | – |
| O=C(Cc1cccc(I)c1)N[C@H]1CCOC1=O [C11] | 15 ± 11% | -4 ± 2% | – | – | 0.0206 µM | 90% | – |
| Cc1cccc(OCC(=O)N[C@H]2CCOC2=O)c1 [E16] | -2 ± 8% | -4 ± 5% | – | – | 0.0433 µM | 100% | – |
| O=C(CCc1cccc(I)c1)N[C@H]1CCOC1=O [E33] | 20 ± 6% | 38 ± 10% | 19% | 67% | – | – | IC50 (SdiA [1]): 9.64 µM |
| CCCCCCCCCCCCOc1ccc(C(=O)N[C@H]2CCOC2=O)cc1 [R9] | 22 ± 10% | 42 ± 13% | 63% | 6% | – | – | – |
| O=C(Nc1ccccc1NC(=O)c1cccc(Cl)c1)c1cccc(Cl)c1 [compound 20, reference compound] | 35 ± 18% | 39 ± 17% | 53% | 47% | – | – | – |
| CCCC(=O)N[C@H]1CCOC1=O [A1, reference compound] | – | – | – | – | 0.578 µM | – | Antagonism 1 μM Inhibition (%) (SdiA [1]): 7 ± 5%; Antagonism 100 μM Inhibition (%) (SdiA [1]): -10 ± 11%; activation (%) (SdiA [2]; [5]): 100% |
| [N-]=[N+]=NCCCCCCCCCCCC(=O)N[C@H]1CCOC1=O [Az-11] | -1 ± 17% | -35 ± 6% | – | – | – | – | EC50 (SdiA [2]): 0.125 µM; activation (%) (SdiA [2]; [5]): fully agonize; Emax (SdiA [2]): 110% |
| O=C(Cc1cccc([N+](=O)[O-])c1)N[C@H]1CCSC1=O [F11] | -11 ± 7% | -16 ± 13% | – | – | 0.00247 µM | 97% | fold increase (SdiA [2]): 11.5 |
| CSc1ccc(CC(=O)N[C@H]2CCOC2=O)cc1 [E6] | 25 ± 16% | 44 ± 13% | 49% | 74% | – | – | – |
| CCCCCC(=O)N[C@H]1CCOC1=O [A2] | 15 ± 4% | 3 ± 1% | – | – | 0.0209 µM | 81% | – |
| CCOC(=O)CNC(=O)Cc1cccc([N+](=O)[O-])c1 [F40] | 21 ± 8% | 43 ± 4% | 33% | 56% | – | – | IC50 (SdiA [1]): 27.8 µM |
| CCCCCCCC(=O)OCC(O)CO (racemic) [compound 23, 1-octanoyl-rac-glycerol, reference compound] | 8 ± 14% | 12 ± 4% | – | – | – | – | activity in the SdiA reporter assay (in words) (SdiA [2]): no agonism; also recorded: no activity |
| O=C(CC1CCCC1)N[C@H]1CCOC1=O [B12] | 7 ± 7% | 14 ± 9% | – | – | 0.0547 µM | 93% | – |

| Compound | inhibition at 1 µM (SdiA [1]) | inhibition at 100 µM (SdiA [1]) | Emax (SdiA [1]; [3]) | Emax (SdiA [2]; [4]) | EC50 (SdiA [2]; read-out: EC50) | Emax (SdiA [2]; [5]) | other results |
| --- | --- | --- | --- | --- | --- | --- | --- |
| CCCCCCCCCCCC(=O)N[C@H]1CCOC1=O [A5] | 17 ± 10% | 43 ± 4% | > 50% | 57% | – | – | – |
| O=C(CCCOc1cccc(Br)c1)N[C@H]1CCSC1=O [compound 16, reference compound] | 8 ± 14% | 84 ± 6% | – | – | – | – | IC50 (SdiA [1]): 45 µM; Emax (SdiA [1]; read-out: inhibition (%), maximal inhibition): 89%; inhibition (%) (S. Typhimurium SdiA): failed to display antagonistic activity; also recorded: did not display any activity; activity in the SdiA reporter assay (in words) (SdiA [2]): multimodal, or non-monotonic; Emax (SdiA [2]): 48% |
| CCCC(=O)N[C@H]1CCSC1=O [F8] | -5 ± 10% | -23 ± 11% | – | – | 0.0628 µM | 91% | fold increase (SdiA [2]): 9.20 |
| COc1ccc(CC(=O)N[C@H]2CCOC2=O)cc1 [C24] | – | – | – | – | 0.252 µM | – | Antagonism 1 μM Inhibition (%) (SdiA [1]): -11 ± 3%; Antagonism 100 μM Inhibition (%) (SdiA [1]): 4 ± 16% |
| O=C(Cc1cccc(Br)c1)N[C@H]1CCOC1=O [C8] | 21 ± 10% | -22 ± 9% | – | – | 0.0191 µM | 96% | – |
| CCCCCCCC(=O)CC(=O)N[C@H]1CCOC1=O [A7] | -4 ± 19% | -2 ± 10% | – | – | 0.0266 µM | 85% | – |
| CCCCCCCCCCCCCCCC(=O)N[C@H]1CCOC1=O [A6] | 17 ± 12% | 38 ± 5% | > 50% | 20% | – | – | IC50 (SdiA [1]): 1.75 µM |
| O=C(COc1ccc(I)cc1)N[C@H]1CCSC1=O [RN22] | -4 ± 9% | 3 ± 9% | – | – | 0.00608 µM | 93% | fold increase (SdiA [2]): 1.71^c |
| N#Cc1cccc(CC(=O)N[C@H]2CCOC2=O)c1 [E5] | 18 ± 8% | -8 ± 4% | – | – | 0.0622 µM | 73% | – |
| CCOC(=O)CNC(=O)Cc1ccc(OC)cc1 [F47] | 3 ± 14% | 36 ± 10% | 42% | 61% | – | – | – |
| O=C(Cc1ccccc1Br)N[C@H]1CCOC1=O [C9] | 9 ± 8% | -48 ± 13% | – | – | 0.0635 µM | 103% | – |
| O=C(Cc1ccc(-c2ccccc2)cc1)N[C@H]1CCSC1=O [F13] | 23 ± 4% | 46 ± 15% | 51% | 59% | – | – | IC50 (SdiA [1]): 2.35 µM |
| CSc1ccc(CCC(=O)N[C@H]2CCOC2=O)cc1 [E34] | 21 ± 15% | 39 ± 8% | 30% | 66% | – | – | – |
| CCCCCCCC(=O)N[C@H]1CCOC1=O [A3] | – | – | – | – | 0.0181 µM | – | Antagonism 1 μM Inhibition (%) (SdiA [1]): 10 ± 8%; Antagonism 100 μM Inhibition (%) (SdiA [1]): 13 ± 14% |
| CCCCCC(=O)CC(=O)N[C@H]1CCSC1=O [F2] | -19 ± 12% | -19 ± 15% | – | – | 0.0007 µM | 119% | fold increase (SdiA [2]): 1.47^c |
